Experimental data taken from patent publication US7795237B2, “Pharmaceutical composition and process” (priority 2005, dated 2010).

How the values were obtained:
[1] = Behaviour on exposure to water (gelling); type: physicochemical; conditions: crystalline form exposed to water
[2] = system: hepatitis C virus (HCV); test: Viral load of patients infected with hepatitis C virus; type: in vivo

CC(C)C(=O)OC[C@@]1(N=[N+]=[N-])O[C@@H](n2ccc(N)nc2=O)[C@H](OC(=O)C(C)C)[C@@H]1OC(=O)C(C)C.Cl [I, isobutyric acid (2R,3S,4R,5R)-5-(4-amino-2-oxo-2H-pyrimidin-1-yl)-2-azido-3,4-bis-iso-butyryloxy-tetrahydro-furan-2-ylmethyl ester; hydrochloride salt]
gel formation when exposed to water [1]: readily forms a gel when exposed to water
viral load [2]: decrease the viral load
